Experiments:
[1] = system: frozen embryos of the inbred mouse B6J strain (blastocyst stage); experiment: Surviving embryos after re-freezing and thawing of blastocysts (Treatment Example 9); format: cell-based
Description: Then, in the early embryos of the inbred mouse B6J strain, an example of using frozen embryos preserved at the blastocyst stage, using the normal medium or the temporary treatment medium according to the present embodiment before and after the manipulation, and comparing whether the occurrence changes is described. In this treatment example, as the temporary treatment medium, a Y-27632-added mWM medium so as to be 10 μM was used (in this example, it is referred to as “Y+ medium”). In addition, as the normal medium, an mWM medium to which Y-27632 was not added was used (In this example, it is referred to as “Y− medium”). As a treatment, the prepared frozen embryos were thawed and developed as they were in Y− medium until the blastocyst stage. Then, half of the embryos that had developed up to the blastocyst were transferred to Y+ medium and placed for 30 minutes. After that, the embryos were transferred to Y− medium again and placed for 30 minutes. Then, the embryos treated with Y+ medium and the embryos not treated were frozen in one tube, respectively. Both tubes of embryos were then thawed and placed in the normal medium for 10 minutes. Then, the embryos were evenly divided into Y+ medium and Y− medium, respectively, and placed for 1 hour. Then, again, each tube of embryos was returned to Y− medium in each tube and the embryos were observed. […]

[2] = system: Pronuclear stage embryo of C57BL/6J; experiment: Flox mouse production by the 2STEP method, Mecp2 / Drb1 (Treatment Example 2); format: cell-based
Description: (§1) 1. Up to 3 hours before TAKE, Y-27632-added mWM medium (Y-27632 final concentration 10 μM, an example of the “temporary treatment medium” of this example), Y-27632-free mWM medium (an example of “normal medium” of this example), 5 drops of each medium were dropped on 35 mm Petri dish, and then covered with paraffin oil. For the drops, twice the number of the drops plates to be performed TAKE were prepared.
(§2) 2. Pronuclear stage embryos were collected, placed in Y-27632-added mWM medium, and cultured for about 30 minutes to 1 hour (temporary treatment).
(§3) 3. After that, the first TAKE was performed.
(§4) 3a. In the case of frozen eggs, after the first TAKE, they were placed in a Y-27632-added mWM medium and cultured for about 30 minutes to 1 hour (temporary treatment).
(§5) 3b. In the case of unfrozen eggs, after the first TAKE, they were placed in a Y-27632-added mWM medium and cultured under 37° C. and 5% CO2 (5% O2) conditions until the next day (temporary treatment).
(§6) 4. After the temporary treatment, the embryos were placed in Y-27632-free mWM medium and cultured at 37° C. and 5% CO2 (5% O2) conditions until the next day.
(§7) 5. Both were confirmed at the next day, and the embryos at the 2-cell stage were subjected to the second TAKE.
(§8) 6. After the second TAKE, the embryos were placed in Y-27632-added mWM medium and cultured for about 30 minutes to 1 hour (temporary treatment).
(§9) 7. Then, they were transferred to Y-27632-free mWM medium. If necessary, culture was continued or embryo transfer was performed.
Therefore, in this preparation example, the temporary treatment medium containing Y-27632 was temporarily treated before and after the electroporation (EP) of the 2STEP method. Pronuclear stage embryo of C57BL/6J (CLEA Japan, Inc.) were used as an in-vitro-culture and female MCH (CLEA Japan, Inc.) were used as recipient.
The present inventors conducted an experiment to obtain Flox mice by the 2STEP method targeting the Mecp2 gene.
In Table 2, “m” indicates treatment with the normal medium, and “Y” indicates temporary treatment with the temporary treatment medium. […] That is, “m->m” uses the normal medium in the both step, “m->Y” was temporarily treated with the temporary treatment medium only in the first electroporation step, and “Y->Y” was temporarily treated with the temporary treatment medium in both steps.
In each column, the proportions that the loxP sequence is inserted only on the left side by the first electroporation step (Left loxP), the loxP sequence is inserted only on the right side by the second electroporation step (Right loxP), and both loxP sequences inserted by both steps (2loxP) were respectively shown.

inbred mouse B6J embryos = experiment: Generation of Flox inbred mice (individuals) by two-step method (Treatment Example 11); format: cell-based
Description: as §1, §2, §3, §4, §5, §6, §7, §8, §9
By using an inbred mouse (B6J in B6 strain) different from the inbred mouse of the treatment example 2 according to the first embodiment, knock-in is performed by the same two-step method as the above-mentioned treatment example 2, and further individual preparation is performed.

[3] = system: pronuclear stage embryos of inbred rats F344; experiment: Generation of Flox inbred rats (individuals) by one-step method (Treatment Example 12); format: cell-based, rat; conditions: F344, floxed p53 1STEP, high concentration, many pulses
Description: The pronuclear stage embryos of inbred rats similar to those of Treatment Example 6 according to Example 1 were knocked in by an electroporation method (1STEP method) by using a high concentration ssODN, and further individual preparations were performed. As in the above-mentioned treatment example 6, insertion of the LoxP that was not knocked in at the normal ssODN concentration and the number of transfer pulses was performed with the same temporary treatment as in the above-mentioned Example 1. Specifically, before and after electroporation, 1 hour of the temporary treatment, 24 hours of culture in the normal medium (waiting period), and 1 hour of the temporary treatment were performed. This made it possible to double the concentration of ssODN and the number of electroporations and to knocked in. Further, when the concentration of Cas9 was increased 5 times, Flox inbred rats were obtained by one electroporation.

[4] = system: frozen and thawed pronuclear stage and 2-cell stage embryos of rat Wistar-Imamichi; experiment: Genome-edited individuals by frozen 1-2 cell TAKE of Wistar-Imamichi (Treatment Example 17); format: cell-based
Source text: Next, knock-outs by TAKE were also produced in the pronuclear stage (1 cell) and the 2-cell stage (2 cells) […] of the frozen and thawed inbred rat Wistar-Imamichi. The conditions at this time were that the gRNA concentration was a specified amount (1 time), the pulse was 7 times, and the reduction rate was 40%.

[5] = Y+ before freezing and Y+ after thawing, 26 embryos
[6] = Y+ before freezing, Y− after thawing, 26 embryos
[7] = Y− before freezing, Y+ after thawing, 20 embryos
[8] = group Y → Y, 2STEP, Mecp2-Flox, blastocysts, listed as Y
[9] = group m → Y, 2STEP, target Mecp2-Flox
[10] = floxed Mecp2 2STEP (HIGH CONCENTRATION)

For `C[C@@H](N)[C@H]1CC[C@H](C(=O)Nc2ccncc2)CC1` [Y-27632, trans-4-[(1R)-1-Aminoethyl]-N-4-pyrid inylcyclohexanecarboxamide], the “NUMBER OF OUTGROWTH, 24 hours after thawing” value (shortened to “NUMBER OF OUTGROWTH, 24 hours”) [1, 5] was “(11)”, the “surviving embryos 3 HOURS AND A HALF AFTER THAWING” value [1, 5] was 12 and the “surviving embryos 24 HOURS AFTER THAWING” value [1, 5] was 24. For the same molecule, the “surviving embryos IMMEDIENTLY AFTER THAWING” value [1, 5] was 7, the “RECOVERY RATE” value ([1]; Y+ before freezing and Y+ after thawing, 26 embryos, frozen twice, listed as Y+) was 92% and the “RECOVERY RATE” value ([1]; Y+ before freezing and Y+ after thawing, 26 embryos, frozen twice, listed as Y+ medium) was “up to 92%”. For the same molecule, the “NUMBER OF OUTGROWTH, 24 hours” value [1, 6] was “(7)”, the “RECOVERY RATE” value [1, 6] was 70% and the “surviving embryos 3 HOURS AND A HALF AFTER THAWING” value [1, 6] was 11. For the same molecule, the “surviving embryos 24 HOURS AFTER THAWING” value [1, 6] was 14, the “surviving embryos IMMEDIENTLY AFTER THAWING” value [1, 6] was 6 and the “NUMBER OF OUTGROWTH, 24 hours” value [1, 7] was “(3)”. For the same molecule, the “RECOVERY RATE” value [1, 7] was 55%, the “surviving embryos 3 HOURS AND A HALF AFTER THAWING” value [1, 7] was 5 and the “surviving embryos 24 HOURS AFTER THAWING” value [1, 7] was 11. For the same molecule, the “surviving embryos IMMEDIENTLY AFTER THAWING” value ([1]; Y− before freezing, Y+ after thawing, 20 embryos, Y-27632 10 μM) was 3, the “Flox neonates obtained (%)” value ([2]; 2STEP, Mecp2, neonates, Y-27632 added) was 4% and the “Left loxP (proportion inserted)” value ([2]; group Y → Y (temporary treatment in both steps), 2STEP, Mecp2-Flox) was 1/15. The “Left loxP (%)” value ([2]; group Y → Y, 2STEP, Mecp2-Flox) was “(6.7%)”, the “Right loxP (%)” value ([2]; group Y → Y, 2STEP, Mecp2-Flox) was “(13.3%)” and the “Right loxP (proportion inserted)” value ([2]; group Y → Y, 2STEP, Mecp2-Flox) was 2/15. For the same molecule, the “2loxP (%), Flox blastocysts” value ([2]; group Y → Y, 2STEP, Mecp2-Flox, blastocysts) was 7%, the “2loxP (%), Flox blastocysts” value [2, 8] was “(6.7%)” and the “2loxP (proportion, Flox blastocysts)” value [2, 8] was 1/15. The “2loxP (%)” value [2, 9] was “(0%)”, the “2loxP (proportion, both loxP inserted)” value [2, 9] was 0/17 and the “Left loxP (%)” value [2, 9] was “(5.9%)”. The “Left loxP (proportion inserted)” value [2, 9] was 1/17, the “Right loxP (%)” value [2, 9] was “(5.9%)” and the “Right loxP (proportion inserted)” value [2, 9] was 1/17. The “inbred strains of Flox mice obtained by the 2STEP method” value ([2]; two types of genes (Mecp2, Drb1)) was “obtained only from the experimental groups to which Y-27632 were added”, the Flox individuals % (inbred mouse B6J embryos; floxed Drb1 2STEP) was 2.6% and the “NUMBER OF FLOX INDIVIDUALS” value (inbred mouse B6J embryos; floxed Drb1 2STEP) was 1/39. The Flox individuals % (inbred mouse B6J embryos; [10]) was 3.9%, the “NUMBER OF FLOX INDIVIDUALS” value (inbred mouse B6J embryos; [10]) was 2/51 and the “NUMBER OF FLOX INDIVIDUALS / FLOX (2 SITES)” value ([3]; 92 transplanted embryos) was 1/9. For the same molecule, the Flox individuals % ([3]; listed as +Y) was 11%, the Flox individuals % ([3]; listed as Y) was 11.1% and the “NUMBER OF KO INDIVIDUALS (Large Deletion)” value ([4]; 37 TAKE embryos, 1 recipient) was 2. The “NUMBER OF NEWBORNS” value ([4]; 37 TAKE embryos, 1 recipient, 1x gRNA, 7 pulses, 40% reduction rate) was 8 and the “KO rate (Large deletion) (%)” value ([4]; KO individuals / newborns analyzed) was “(25%)”.

Reference: patent publication US20230220331A1, “TEMPORARY TREATMENT MEDIUM, TREATMENT KIT, EMBRYOGENESIS ARREST INHIBITOR, EMBRYOGENESIS ARREST INHIBITORY METHOD, DEVELOPMENTAL ENGINEERING PRODUCT PREPARATION METHOD, TRANSPLANTATION METHOD, THERAPEUTIC METHOD, AND DEVELOPMENTAL ENGINEERING PRODUCT” (priority 2020, published 2023)
